We go through one compound from patent US20230119833A1, “NMR METHODS FOR CHARACTERIZING IRON SUCROSE” (Amphastar Pharmaceuticals, Inc., priority 2020, published 2023).

The nature of this data set: 13C NMR peak width at half-height (PWHH) and relative PWHH of sucrose peaks, Example 1. Format: physicochemical. The note with it: for PWHH, three lots mean, Average: average of the twelve 13C peaks. Here is the method: In Example 1, ^13C NMR was performed on three (3) samples (e.g 3 lots) of a comparator iron sucrose drug product having an equivalent concentration of 20 mg base/mL, and three (3) samples (e.g 3 lots) of a tested iron sucrose drug product having an equivalent concentration of 20 mg base/mL were analyzed by ^13C NMR in Example 1. The comparator product was Venofer® having an equivalent concentration of 20 mg base/mL. In addition, ^13C NMR was also performed on 3 samples (e.g. 3 lots) of free sucrose sample. Free sucrose is sucrose only with no iron.
The average PWHH of the 3 lots of the comparator iron sucrose drug product is identified as w in Tables 1 and 2. The average PWHH of the 3 lots of the tested iron sucrose drug productis identified as w in Tables 1 and 2. The average PWHH of the 3 lots of sucrose only sample is identified as w0 in Tables 1 and 2.
In addition to PWHH, a RPWHH is another characterization method disclosed herein. […] As provided in Table 1, the RPWHH averaged among the twelve (12) C peaks and the 3 lots for: (i) w1/wo is 8.5 f 1.0, and (ii) w2/wo is 7.9±1.1.

In the case of `OC[C@H]1O[C@@](CO)(O[C@H]2O[C@H](CO)[C@@H](O)[C@H](O)[C@H]2O)[C@@H](O)[C@@H]1O` [Sucrose Only, sucrose], the “PWHH, three lots mean, Average” value is 15.0 ppb. The “PWHH, three lots mean” value (13C Peak No. 1, 106.0 ppm, Fructose, Carbon Atom No. 8) is listed as 10.6 ppb. Besides, the “PWHH, three lots mean” value (13C Peak No. 2, 95.0 ppm, Glucose, Carbon Atom No. 1) was 14.7 ppb. Further, the “PWHH, three lots mean” value (13C Peak No. 3, 84.0 ppm, Fructose, Carbon Atom No. 11) worked out at 13.4 ppb. Under “13C Peak No. 4, 79.0 ppm, Fructose, Carbon Atom No. 9”, the “PWHH, three lots mean” value is recorded as 16.3 ppb. The “PWHH, three lots mean” value (13C Peak No. 5, 76.0 ppm, Fructose, Carbon Atom No. 10) is 15.8 ppb. Also, the “PWHH, three lots mean” value (13C Peak No. 6, 75.4 ppm, Glucose, Carbon Atom No. 3) amounted to 14.3 ppb. For the same compound, under “13C Peak No. 7, 75.2 ppm, Glucose, Carbon Atom No. 5”, the “PWHH, three lots mean” value is listed as 14.9 ppb. The “PWHH, three lots mean” value (13C Peak No. 8, 73.9 ppm, Glucose, Carbon Atom No. 2) came to 15.7 ppb. Besides, the “PWHH, three lots mean” value (13C Peak No. 9, 72.0 ppm, Glucose, Carbon Atom No. 4) is given as 13.7 ppb. The “PWHH, three lots mean” value (13C Peak No. 10, 65.2 ppm, Fructose, Carbon Atom No. 7) is on record as 16.2 ppb. Further, the “PWHH, three lots mean” value (13C Peak No. 11, 64.1 ppm, Fructose, Carbon Atom No. 12) was 17.6 ppb. Also, for the setting “13C Peak No. 12, 62.9 ppm, Glucose, Carbon Atom No. 6”, the “PWHH, three lots mean” value was determined as 17.2 ppb. The “PWHH, three lots mean, Average” value (listed as w0) was found to be 15±2 ppb.
